# Test results published in patent US12178210B2, “Insect attractant and killing system” (priority 2020, dated 2024).
# Where two headings read alike, the source gives them in different places.
# What was measured:
# [1] = for Attractant Release Rate (5-day average per time point): Ambient Temperature
# Text: All prototype lure devices (i.e., the attractant receptacle and permeable membrane with enclosed volatile insect attractant) were constructed using polypropylene/calcium carbonate film (UV8) for the permeable membrane and Scotchpak™ (3M) polyester laminate film for the impermeable barrier material. Each lure device measured approximately 11.5 cm×5.5 cm with a 1.6 mm ( 1/16 in) diameter spherical punch in the impermeable layer exposing the membrane and an ˜8 mm ( 5/16 in) diameter heat seal around the circumference of the punch (referred to as a ring seal). […] Prior to being deployed the lures were weighed on an analytical balance (Sartorius, Universal; resolution of 0.01 g). Prototype lures were attached to a cord that ran the length of ventilated laboratory fume hood, with 5-8 cm (2-3 in) separating each lure in an open, ventilated room at the indicated temperature (18-20° C. or 39-41° C.). Every 2-3 days the lures were removed from the cord and weighed on the same scale. Lure weight was recorded and the weight loss (g/day) was calculated. In addition to prototype lures, two controls were included in the study consisting of a current Suterra lure product (WHF lure) and a competitor product (Comp. Prod. 1).
# [2] = field, Valencia
# Procedure: Every two weeks samples of the attractant were weighed to determine the mass. From the mass, the mass that had been released, the mass remaining, and the amount of ammonia released was determined.
smiles,measurement,setting,value
"N.NC(=O)O [Ammonium Carbamate, ammonium carbamate]",Release Rate,"[1]; 40° C., 16 hours, UV8 membrane, 1.6 mm orifice",0.49 g/day
same,Release Rate,"[1]; 40° C., 16 hours, second, unexplained block of rows",0.02 g/day
same,Release Rate,"[1]; 40° C., 24 hours, UV8 membrane, 1.6 mm orifice",0.49 g/day
same,Release Rate,"[1]; 40° C., 24 hours, second, unexplained block of rows",0.01 g/day
same,Release Rate,"[1]; 40° C., 51 hours, UV8 membrane, 1.6 mm orifice",0.46 g/day
same,Release Rate,"[1]; 40° C., 51 hours, second, unexplained block of rows",0.01 g/day
same,Release Rate,"[1]; 40° C., 88 hours, UV8 membrane, 1.6 mm orifice",0.45 g/day
same,Release Rate,"[1]; 40° C., 88 hours, second, unexplained block of rows",0.04 g/day
same,Release Rate,"[1]; 40° C., 96 hours, UV8 membrane, 1.6 mm orifice",0.46 g/day
same,Release Rate,"[1]; 40° C., 96 hours, second, unexplained block of rows",0.06 g/day
same,Release Rate,"[1]; 40° C., 112 hours, UV8 membrane, 1.6 mm orifice",0.46 g/day
same,Release Rate,"[1]; 40° C., 112 hours, second, unexplained block of rows",0.08 g/day
same,Release Rate,"[1]; 40° C., 120 hours, UV8 membrane, 1.6 mm orifice",0.46 g/day
same,Release Rate,"[1]; 40° C., 120 hours, second, unexplained block of rows",0.09 g/day
same,Release Rate,"[1]; 40° C., 144 hours, UV8 membrane, 1.6 mm orifice",0.46 g/day
same,Release Rate,"[1]; 40° C., 144 hours, second, unexplained block of rows",0.11 g/day
same,Release Rate,"[1]; 40° C., 168 hours, UV8 membrane, 1.6 mm orifice",0.46 g/day
same,Release Rate,"[1]; 40° C., 168 hours, second, unexplained block of rows",0.13 g/day
same,Attractant Release Rate (5-day average per time point),"[1]; day 5, 15 g, UV8 membrane, 1.6 mm orifice",89.2 mg/day
same,Attractant Release Rate (5-day average per time point),"[1]; day 10, 15 g, UV8 membrane, 1.6 mm orifice",93.6 mg/day
same,Attractant Release Rate (5-day average per time point),"[1]; day 15, 15 g, UV8 membrane, 1.6 mm orifice",97.0 mg/day
same,Attractant Release Rate (5-day average per time point),"[1]; day 20, 15 g, UV8 membrane, 1.6 mm orifice",101.0 mg/day
same,Attractant Release Rate (5-day average per time point),"[1]; day 25, 15 g, UV8 membrane, 1.6 mm orifice",100.0 mg/day
same,Attractant Release Rate (5-day average per time point),"[1]; day 30, 15 g, UV8 membrane, 1.6 mm orifice",105.3 mg/day
same,Attractant Release Rate (5-day average per time point),"[1]; day 40, 15 g, UV8 membrane, 1.6 mm orifice",99.6 mg/day
same,Attractant Release Rate (5-day average per time point),"[1]; day 49, 15 g, UV8 membrane, 1.6 mm orifice",113.5 mg/day
same,Attractant Release Rate (5-day average per time point),"[1]; day 55, 15 g, UV8 membrane, 1.6 mm orifice",114.3 mg/day
same,Release Rate,"[1]; Ambient, 16 hours, UV8 membrane, 1.6 mm orifice",0.09 g/day
same,Release Rate,"[1]; Ambient, 16 hours, second, unexplained block of rows",0.00 g/day
same,Release Rate,"[1]; Ambient, 24 hours, UV8 membrane, 1.6 mm orifice",0.10 g/day
same,Release Rate,"[1]; Ambient, 24 hours, second, unexplained block of rows",0.01 g/day
same,Release Rate,"[1]; Ambient, 51 hours, UV8 membrane, 1.6 mm orifice",0.10 g/day
same,Release Rate,"[1]; Ambient, 51 hours, second, unexplained block of rows",0.00 g/day
same,Release Rate,"[1]; Ambient, 88 hours, UV8 membrane, 1.6 mm orifice",0.10 g/day
same,Release Rate,"[1]; Ambient, 88 hours, second, unexplained block of rows",0.02 g/day
same,Release Rate,"[1]; Ambient, 96 hours, UV8 membrane, 1.6 mm orifice",0.10 g/day
same,Release Rate,"[1]; Ambient, 96 hours, second, unexplained block of rows",0.02 g/day
same,Release Rate,"[1]; Ambient, 112 hours, UV8 membrane, 1.6 mm orifice",0.10 g/day
same,Release Rate,"[1]; Ambient, 112 hours, second, unexplained block of rows",0.02 g/day
same,Release Rate,"[1]; Ambient, 120 hours, UV8 membrane, 1.6 mm orifice",0.10 g/day
same,Release Rate,"[1]; Ambient, 120 hours, second, unexplained block of rows",0.00 g/day
same,Release Rate,"[1]; Ambient, 144 hours, UV8 membrane, 1.6 mm orifice",0.10 g/day
same,Release Rate,"[1]; Ambient, 144 hours, second, unexplained block of rows",0.00 g/day
same,Release Rate,"[1]; Ambient, 168 hours, UV8 membrane, 1.6 mm orifice",0.10 g/day
same,Release Rate,"[1]; Ambient, 168 hours, second, unexplained block of rows",0.00 g/day
same,Attractant Release Rate (5-day average per time point),"[1]; day 5, CM",393.2 mg/day
same,Attractant Release Rate (5-day average per time point),"[1]; day 10, CM",387.2 mg/day
same,Attractant Release Rate (5-day average per time point),"[1]; day 15, CM",362.0 mg/day
same,Attractant Release Rate (5-day average per time point),"[1]; day 20, CM",356.0 mg/day
same,Attractant Release Rate (5-day average per time point),"[1]; day 25, CM",331.6 mg/day
same,Attractant Release Rate (5-day average per time point),"[1]; day 30, CM",311.7 mg/day
same,Attractant Release Rate (5-day average per time point),"[1]; day 35, CM",306.5 mg/day
same,Attractant Release Rate (5-day average per time point),"[1]; day 40, CM",266.0 mg/day
same,Attractant Release Rate (5-day average per time point),"[1]; day 45, CM",191.6 mg/day
same,Attractant Release Rate (5-day average per time point),"[1]; day 49, CM",94.0 mg/day
same,Attractant Release Rate (5-day average per time point),"[1]; day 55, CM",10.3 mg/day
same,Avg. Mass Loss,"[2]; week 0, ave. temp. 25.10 ° C",0.00 g
same,Avg. Mass Remaining,"[2]; week 0, ave. temp. 25.10 ° C",16.90 g
same,Avg. Release Rate,"[2]; week 0, ave. temp. 25.10 ° C",0.000 g/day
same,Avg. Mass Loss,"[2]; week 2, ave. temp. 26.30 ° C",0.75 g
same,Avg. Mass Remaining,"[2]; week 2, ave. temp. 26.30 ° C",16.15 g
same,Avg. Release Rate,"[2]; week 2, ave. temp. 26.30 ° C",0.054 g/day
same,Avg. Mass Loss,"[2]; week 4, ave. temp. 26.90 ° C",1.75 g
same,Avg. Mass Remaining,"[2]; week 4, ave. temp. 26.90 ° C",15.15 g
same,Avg. Release Rate,"[2]; week 4, ave. temp. 26.90 ° C",0.071 g/day
same,Avg. Mass Loss,"[2]; week 6, ave. temp. 27.10 ° C",2.65 g
same,Avg. Mass Remaining,"[2]; week 6, ave. temp. 27.10 ° C",14.25 g
same,Avg. Release Rate,"[2]; week 6, ave. temp. 27.10 ° C",0.064 g/day
same,Avg. Mass Loss,"[2]; week 8, ave. temp. 24.40 ° C",3.48 g
same,Avg. Mass Remaining,"[2]; week 8, ave. temp. 24.40 ° C",13.42 g
same,Avg. Release Rate,"[2]; week 8, ave. temp. 24.40 ° C",0.059 g/day
same,Avg. Mass Loss,"[2]; week 10, ave. temp. 22.60 ° C",4.17 g
same,Avg. Mass Remaining,"[2]; week 10, ave. temp. 22.60 ° C",12.72 g
same,Avg. Release Rate,"[2]; week 10, ave. temp. 22.60 ° C",0.050 g/day
same,Avg. Mass Loss,"[2]; week 12, ave. temp. 21.50 ° C",4.82 g
same,Avg. Mass Remaining,"[2]; week 12, ave. temp. 21.50 ° C",12.08 g
same,Avg. Release Rate,"[2]; week 12, ave. temp. 21.50 ° C",0.046 g/day
same,Avg. Mass Loss,"[2]; week 14, ave. temp. 19.90 ° C",5.38 g
same,Avg. Mass Remaining,"[2]; week 14, ave. temp. 19.90 ° C",11.52 g
same,Avg. Release Rate,"[2]; week 14, ave. temp. 19.90 ° C",0.040 g/day
same,Avg. Mass Loss,"[2]; week 16, ave. temp. 17.70 ° C",5.72 g
same,Avg. Mass Remaining,"[2]; week 16, ave. temp. 17.70 ° C",11.18 g
same,Avg. Release Rate,"[2]; week 16, ave. temp. 17.70 ° C",0.024 g/day
same,Avg. Mass Loss,"[2]; week 18, ave. temp. 15.30 ° C",6.02 g
same,Avg. Mass Remaining,"[2]; week 18, ave. temp. 15.30 ° C",10.88 g
same,Avg. Release Rate,"[2]; week 18, ave. temp. 15.30 ° C",0.021 g/day
same,Avg. Mass Loss,"[2]; week 20, ave. temp. 14.40 ° C",6.26 g
same,Avg. Mass Remaining,"[2]; week 20, ave. temp. 14.40 ° C",10.64 g
same,Avg. Release Rate,"[2]; week 20, ave. temp. 14.40 ° C",0.017 g/day
same,Avg. Mass Loss,"[2]; week 24, ave. temp. 11.70 ° C",6.36 g
same,Avg. Mass Remaining,"[2]; week 24, ave. temp. 11.70 ° C",10.54 g
same,Avg. Release Rate,"[2]; week 24, ave. temp. 11.70 ° C",0.004 g/day
same,Avg. Mass Loss,"[2]; week 28, ave. temp. […] C",6.71 g
same,Avg. Mass Remaining,"[2]; week 28, ave. temp. […] C",10.19 g
same,Avg. Release Rate,"[2]; week 28, ave. temp. […] C",0.013 g/day
same,Avg. Mass Loss,"[2]; week 31, ave. temp. […] C",7.22 g
same,Avg. Mass Remaining,"[2]; week 31, ave. temp. […] C",9.67 g
same,Avg. Release Rate,"[2]; week 31, ave. temp. […] C",0.024 g/day
same,Avg. Mass Loss,"[2]; week 35, ave. temp. 12.60 ° C",7.63 g
same,Avg. Mass Remaining,"[2]; week 35, ave. temp. 12.60 ° C",9.26 g
same,Avg. Release Rate,"[2]; week 35, ave. temp. 12.60 ° C",0.015 g/day
same,Avg. Mass Loss,"[2]; week 38, ave. temp. 13.50 ° C",8.07 g
same,Avg. Mass Remaining,"[2]; week 38, ave. temp. 13.50 ° C",8.83 g
same,Avg. Release Rate,"[2]; week 38, ave. temp. 13.50 ° C",0.021 g/day
same,Avg. Mass Loss,"[2]; week 39, ave. temp. 13.30 ° C",8.24 g
same,Avg. Mass Remaining,"[2]; week 39, ave. temp. 13.30 ° C",8.66 g
same,Avg. Release Rate,"[2]; week 39, ave. temp. 13.30 ° C",0.024 g/day
same,Avg. Mass Loss,"[2]; week 41, ave. temp. 15.80 ° C",8.55 g
same,Avg. Mass Remaining,"[2]; week 41, ave. temp. 15.80 ° C",8.35 g
same,Avg. Release Rate,"[2]; week 41, ave. temp. 15.80 ° C",0.022 g/day
same,Avg. Mass Loss,"[2]; week 43, ave. temp. 16.50 ° C",8.79 g
same,Avg. Mass Remaining,"[2]; week 43, ave. temp. 16.50 ° C",8.11 g
same,Avg. Release Rate,"[2]; week 43, ave. temp. 16.50 ° C",0.017 g/day
same,Avg. Mass Loss,"[2]; week 46, ave. temp. 18.10 ° C",9.45 g
same,Avg. Mass Remaining,"[2]; week 46, ave. temp. 18.10 ° C",7.44 g
same,Avg. Release Rate,"[2]; week 46, ave. temp. 18.10 ° C",0.032 g/day
same,Avg. Mass Loss,"[2]; week 47, ave. temp. 20.40 ° C",9.75 g
same,Avg. Mass Remaining,"[2]; week 47, ave. temp. 20.40 ° C",7.14 g
same,Avg. Release Rate,"[2]; week 47, ave. temp. 20.40 ° C",0.043 g/day
